Laboratory results as given in US20240293490A1, “CHRYSANTHEMUM ZAWADSKII EXTRACT AND PREPARING METHOD THEREOF” (GREEN CROSS WELLBEING CORPORATION, priority 2023, published 2024).
“And” between values parts separate entries of the source, which are not always exact repeats. Equal values may be shown once.

How the values were obtained:
male ICR mice [1] = experiment: Hot plate test, analgesic efficacy (central nervous system); format: in vivo, mouse; details: G2, 60 mg/kg oral
Description: The experimental method used in this example is an analgesic efficacy experiment method using a hot plate test described in the “Guidelines for efficacy test of herbal preparations—General efficacy tests for painful diseases” announced by the Ministry of Food and Drug Safety, wherein the analgesic effect in the central nervous system of a mouse is measured with a response time to a heat stimulus as an index through a hot plate. At this time, the response time to the heat stimulus is measured as a time elapsed until the experimental animal licks the paw or jumps.
(§1) 1) Celebrex (Celecoxib, Pfizer, 200 mg), Saline (Chungwae Pharmaceutical), Chrysanthemum extract (Green Cross HS) and male ICR mice (6 weeks old, weight 30-35 g, Orient Bio) were prepared. In this example, the Chrysanthemum extract was extracted by the organic solvent extraction method described in the above preparative example wherein it was extracted using 70% ethanol.
(§2) 2) 60 mg/kg of Celebrex and 50, 100 and 200 mg/kg of Chrysanthemum extracts were prepared and orally administered to ICR mice, respectively. At this time, Celebrex is converted into administration concentration and suspended in saline while vortexing, and Chrysanthemum extract is suspended in 0.5% CMC and sonicated at 20 to 25° C. for about 10 minutes.
According to the efficacy experimental method using the hot plate test method, as the experimental animals, 5-week-old male ICR mice were purchased, acclimatized for 1 week, and then tested. The hot plate was maintained at 55° C., and drug administration was performed 30 minutes before this method. The central pain response due to heat was measured with an index, i.e., the time elapsed until the mouse licks the hind paw or jumps starting from contacting with the hot plate.
Then, the pain response due to heat was measured with an index, i.e., the time elapsed until the mouse licks the hind paw or jumps starting from contacting with the hot plate.

male ICR mice [2] = experiment: Acetic acid writhing test, analgesic efficacy (peripheral nerves); format: in vivo, mouse; details: G2, 60 mg/kg oral
Description: The experimental method used in this example is the “Acetic acid writhing test” described in the “Guidelines for efficacy test of herbal preparations—General efficacy tests for painful diseases” announced by the Ministry of Food and Drug Safety, wherein acetic acid is administered intraperitoneally to cause damage of capillaries and pain in the abdominal cavity, and the analgesic effect in peripheral nerves is measured using the abdominal contractile response as an index.
as §1, with “mg), acetic acid (Daejunghwageum),” for “mg),”, “(5” for “(6”, “old,” for “old, weight 30-35 g,”
as §2, with “mice.” for “mice, respectively.”
For the experimental method for analgesic effects to the acetic acid writhing test, as the experimental animals, 4-week-old male ICR mice were purchased, acclimatized for 1 week, and then tested. The Chrysanthemum extract and control drug, respectively, were orally administered to mice by dose, followed by intraperitoneal injection of acetic acid (0.7% acetic acid-physiological saline (0.1 ml/10 g B.W.)) 30 minutes after administration. Subsequently, from 5 minutes after injection, the number of occurrences of writhing was measured for 10 minutes (FIG. 3).
Subsequently, from 5 minutes after the intraperitoneal administration, the number of occurrences of writhing syndrome was counted for 10 minutes and results thereof are shown in FIG. 10 and Table 14.

Cc1ccc(-c2cc(C(F)(F)F)nn2-c2ccc(S(N)(=O)=O)cc2)cc1 [Celecoxib]
Response time, % of control (increase rate) (male ICR mice [1]): 53.9%
Response time, individual mouse (male ICR mice [1]; hot plate 55° C., mice 1-8): 26.94 s and 27.82 s and 35.55 s and 36.22 s and 28.54 s and 33.71 s and 32.71 s and 25.61 s
Response time, mean (male ICR mice [1]; n=8, control mean 20.07): 30.89 s
Writhing syndrome/10 min, individual mouse (male ICR mice [2]; 0.7% acetic acid i.p. 30 minutes after administration, mice 1-6): 9.00 /10 min and 6.00 /10 min and 15.00 /10 min and 14.00 /10 min and 25.00 /10 min and 18.00 /10 min
Writhing syndrome/10 min, mean (male ICR mice [2]; n=6, control mean 28.33): 14.50 /10 min
inhibition at 60 mg/kg (male ICR mice [2]; Mus musculus, read-out: Writhing syndrome, % of control (inhibition rate, reduction compared to control)): 48.9%
